Test results: ChEMBL document CHEMBL2073887, “Hepatobiliary transport kinetics of HSR-903, a new quinolone antibacterial agent” (Drug Metab Dispos, 1998)

Assays:
[1] = target: T1, ATP-binding cassette sub-family C member 2 (Rattus norvegicus, UniProt Q63120); test: TP_TRANSPORTER: biliary excretion in SD rat; format: functional, organism-based, Sprague-Dawley, Bile; conditions: in vivo
[2] = target: T1, ATP-binding cassette sub-family C member 2; test: TP_TRANSPORTER: biliary excretion in EHBR rat; format: functional, organism-based, Bile; conditions: in vivo

T1 sequence (Q63120 whole entry): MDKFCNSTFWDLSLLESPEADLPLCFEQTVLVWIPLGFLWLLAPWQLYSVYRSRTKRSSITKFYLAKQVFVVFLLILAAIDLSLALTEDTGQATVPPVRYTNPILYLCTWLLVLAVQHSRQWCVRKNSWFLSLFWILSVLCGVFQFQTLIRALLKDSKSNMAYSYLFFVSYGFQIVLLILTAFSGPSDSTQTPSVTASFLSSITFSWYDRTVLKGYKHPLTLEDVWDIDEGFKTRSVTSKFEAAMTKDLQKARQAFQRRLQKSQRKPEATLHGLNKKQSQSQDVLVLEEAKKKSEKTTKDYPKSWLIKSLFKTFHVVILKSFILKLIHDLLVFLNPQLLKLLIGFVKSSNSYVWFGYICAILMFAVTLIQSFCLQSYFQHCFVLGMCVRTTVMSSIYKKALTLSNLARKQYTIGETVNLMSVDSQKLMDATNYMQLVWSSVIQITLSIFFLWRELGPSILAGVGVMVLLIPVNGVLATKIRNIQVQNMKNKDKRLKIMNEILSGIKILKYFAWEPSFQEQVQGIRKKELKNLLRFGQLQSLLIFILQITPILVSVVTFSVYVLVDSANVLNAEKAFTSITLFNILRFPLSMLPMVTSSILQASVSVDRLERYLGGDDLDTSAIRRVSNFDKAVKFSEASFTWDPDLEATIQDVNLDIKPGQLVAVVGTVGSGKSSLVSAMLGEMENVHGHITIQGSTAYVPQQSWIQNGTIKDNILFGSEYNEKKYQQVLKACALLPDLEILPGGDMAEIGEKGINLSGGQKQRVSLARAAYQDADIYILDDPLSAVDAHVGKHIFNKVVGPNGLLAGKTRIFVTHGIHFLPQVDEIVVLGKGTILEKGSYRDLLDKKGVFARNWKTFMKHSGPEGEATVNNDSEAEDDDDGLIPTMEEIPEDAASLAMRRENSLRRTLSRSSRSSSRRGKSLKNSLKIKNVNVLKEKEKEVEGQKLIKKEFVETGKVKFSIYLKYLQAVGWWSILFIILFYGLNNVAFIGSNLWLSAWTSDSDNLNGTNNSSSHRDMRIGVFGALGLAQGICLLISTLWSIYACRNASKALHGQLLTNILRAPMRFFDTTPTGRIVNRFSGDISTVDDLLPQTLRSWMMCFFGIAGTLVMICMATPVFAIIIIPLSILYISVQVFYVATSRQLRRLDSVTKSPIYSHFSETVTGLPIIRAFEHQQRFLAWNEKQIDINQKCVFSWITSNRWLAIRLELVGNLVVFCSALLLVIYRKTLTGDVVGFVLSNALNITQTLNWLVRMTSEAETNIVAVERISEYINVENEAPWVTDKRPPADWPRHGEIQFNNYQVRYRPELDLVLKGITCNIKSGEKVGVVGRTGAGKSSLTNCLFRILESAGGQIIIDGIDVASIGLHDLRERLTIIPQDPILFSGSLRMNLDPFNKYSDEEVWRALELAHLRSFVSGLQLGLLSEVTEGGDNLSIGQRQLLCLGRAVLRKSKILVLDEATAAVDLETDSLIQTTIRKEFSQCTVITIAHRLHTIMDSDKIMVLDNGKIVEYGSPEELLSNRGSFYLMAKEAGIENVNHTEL

CS(=O)(=O)O.Cc1c(N2C[C@@H](N)C3(CC3)C2)c(F)c(N)c2c(=O)c(C(=O)O)cn(C3CC3)c12
Activity [1]: substrate [+]
Activity [2]: substrate [+]
